assay: Waters ACQUITY UPLC BEH C18, 100 × 2.1 mm, 1.7 µm, 40 °C, 0.3 to 0.4 mL/min, estimated dead time 0.63 min; A: water + 0.1% formic acid; B: methanol + 0.1% formic acid; gradient (min/%B) 0/0.5 0.1/0.5 10/80 10.1/99.5 12/99.5; conditions: stereoisomer not certain

`COc1ccc2c3c([nH]c2c1)C1CC2C(=CCO)CN1C1C3OCC21` (stereo not drawn) and `CC=C1CN2C3CC1C1COC(c4c3[nH]c3cc(OC)ccc43)C12` (stereo not drawn) are within 1.5-fold of each other in LC retention time: 3.6 min for the first, 4.42 min for the second.

`CCC1=NC2CC3(C(=O)N(OC)c4ccccc43)C3CC1C2CO3` (stereo not drawn) and `COc1ccc2c(c1)OC(OC1OC(CO)C(O)C(O)C1O)C(=O)N2O` (stereo not drawn) are within 1.5-fold of each other in LC retention time: 3.99 min for the first, 3.5 min for the second.

`O=C(C=Cc1ccc(O)cc1)OC1C(OC2C(Oc3ccc(-c4cc(=O)c5c(O)cc(O)cc5o4)cc3)OC(C(=O)O)C(O)C2O)OC(C(=O)O)C(O)C1O` (stereo not drawn) and `O=C(O)C1OC(Oc2c(-c3ccc(O)cc3)oc3cc(O)cc(O)c3c2=O)C(O)C(O)C1O` (stereo not drawn) are within 1.5-fold of each other in LC retention time: 4.77 min for the first, 4.34 min for the second.

`O=C(C=Cc1ccc(O)c(O)c1)OC1CC(O)(C(=O)O)CC(OC(=O)C=Cc2ccc(O)c(O)c2)C1O` (stereo not drawn) and `COc1cc(C=CNC(=O)C=Cc2ccc(O)c(OC)c2)ccc1O` are within 1.5-fold of each other in LC retention time: 4.6 min for the first, 4.38 min for the second.

Going from `COC(=O)C1=COC(OC2OC(CO)C(O)C(O)C2O)C2C(CO)=CCC12` (stereo not drawn) to `Nc1[nH]c(=O)[nH]c(=O)c1OC1OC(CO)C(O)C(O)C1OC1OC(CO)C(O)C1O` (stereo not drawn), the LC retention time falls from 3.42 min to 2.16 min (1.6-fold).

`CCC(C)C(N)C(=O)O` (stereo not drawn) and `CC(C)CC(N)C(=O)O` (stereo not drawn) are within 1.5-fold of each other in LC retention time: 1.94 min for the first, 1.87 min for the second.

`CC1(C)CC(O)C2(C)CCC3(C)C(=CCC4C5(C)CCC(OC6OC(C(=O)O)C(O)C(O)C6OC6OC(CO)C(O)C(O)C6OC6OCC(O)C(O)C6O)C(C)(CO)C5CCC43C)C2C1` (stereo not drawn) and `COC1C(O)C(OC2C(OC3C(OC4CCC5(C)C(CCC6(C)C5CC=C5C7CC(C)(C)CC(O)C7(C)CCC56C)C4(C)CO)OC(C(=O)O)C(O)C3O)OC(C(=O)O)C(O)C2O)OC(CO)C1OC(C)=O` (stereo not drawn) are within 1.5-fold of each other in LC retention time: 5.73 min for the first, 7.33 min for the second.

`O=c1cc(-c2ccc(O)cc2)oc2cc(OC3OC(CO)C(O)C(O)C3O)c(C3OC(CO)C(O)C(O)C3O)c(O)c12` (stereo not drawn) and `COc1cc(-c2[o+]c3cc(O)cc(OC4OC(CO)C(O)C(O)C4O)c3cc2OC2OC(CO)C(O)C(O)C2O)ccc1O` (stereo not drawn) are within 1.5-fold of each other in LC retention time: 3.52 min for the first, 2.79 min for the second.

`COc1cc(-c2[o+]c3cc(O)cc(O)c3cc2OC2OC(CO)C(O)C(O)C2O)cc(OC)c1O` (stereo not drawn) and `COc1c(OC2OC(CO)C(O)C(O)C2O)cc2oc(-c3ccc(O)c(O)c3)c(O)c(=O)c2c1O` (stereo not drawn) are within 1.5-fold of each other in LC retention time: 3.19 min for the first, 4.58 min for the second.

`CCCCCC=CCC=CCC=CCCCCC(=O)OCC(O)COP(=O)([O-])OCC[N+](C)(C)C` (stereo not drawn) and `CCCCCCCCC=CCCCCCCCC(=O)OCC(O)COP(=O)([O-])OCC[N+](C)(C)C` (stereo not drawn) are within 1.5-fold of each other in LC retention time: 8.85 min for the first, 10.1 min for the second.

Compared with `CCCCCCCCCCCCCCCC(=O)OCC(O)COP(=O)([O-])OCC[N+](C)(C)C` (stereo not drawn), `CCC(C)C(NCC1(O)OCC(O)C(O)C1O)C(=O)NC(CCC(=O)O)C(=O)O` (stereo not drawn) is 4.8-fold lower in LC retention time: 9.91 min for the first, 2.07 min for the second.

`COc1cc(-c2cc(=O)c3c(O)cc(OC4OC(C(=O)O)C(O)C(O)C4O)cc3o2)cc(OC)c1OC1OC(CO)C(O)C(O)C1O` (stereo not drawn) and `CC1OC(Oc2cc(O)c3c(=O)c(OC4OC(CO)C(O)C(O)C4OC4OC(CO)C(O)C(O)C4O)c(-c4ccc(O)c(O)c4)oc3c2)C(O)C(O)C1O` (stereo not drawn) are within 1.5-fold of each other in LC retention time: 4.05 min for the first, 2.95 min for the second.

`O=C([O-])CC(=O)OCC1OC(OC2Cc3c(O)cc(O)cc3[O+]=C2c2ccc(O)cc2)C(O)C(O)C1O` (stereo not drawn) and `O=C1c2ccc(O)cc2OCC1c1ccc(O)c(OC2OC(CO)C(O)C(O)C2O)c1` (stereo not drawn) are within 1.5-fold of each other in LC retention time: 4.88 min for the first, 3.56 min for the second.

Going from `O=C(C=Cc1ccccc1)c1ccccc1` to `NCCCCNC(=O)c1ccccc1`, the LC retention time falls from 9.02 min to 2.71 min (3.3-fold).

`CC1=C(O)C(=O)CC(OC2CC(C)(C)CC3C4=CCC5C6(C)CCC(OC7OC(C(=O)O)C(O)C(O)C7OC7OC(C(=O)O)C(O)C(O)C7O)C(C)(CO)C6CCC5(C)C4(C)CCC23C)O1` (stereo not drawn) and `CC1(C)CC2C3=CCC4C5(C)CCC(O)C(C)(CO)C5CCC4(C)C3(C)CCC2(C)C(O)C1O` (stereo not drawn) are within 1.5-fold of each other in LC retention time: 7.96 min for the first, 8.94 min for the second.

Going from `CC(C)CC(N)C(=O)N1CCCC1C(=O)O` (stereo not drawn) to `O=C(O)CC(O)(CC(=O)O)C(=O)O`, the LC retention time falls from 2.72 min to 1.57 min (1.7-fold).

`CC1CCC2C(C)C3C(CC4C5C(=O)C=C6CC(OC7OC(CO)C(OC8OC(C)C(O)C(O)C8O)C(O)C7OC7OC(C)C(O)C(O)C7O)CCC6(C)C5CCC43C)N2C1` (stereo not drawn) and `CC(CCC1(O)OC2CC3C4CC=C5CC(O)CC(OC6OC(CO)C(O)C(O)C6O)C5(C)C4CCC3(C)C2C1C)COC1OC(CO)C(O)C(O)C1OC1OC(C)C(O)C(O)C1O` (stereo not drawn) are within 1.5-fold of each other in LC retention time: 4.52 min for the first, 4.34 min for the second.

First: CCC(C)C(=O)OC1C(O)C2C(CN3CC(C)CCC3C2(C)O)C2CC34OC5(O)C(OC(=O)C(C)(O)C(C)OC(C)=O)CCC3(C)C5CC(O)C4C21O (stereo not drawn)
Second: COc1cc(C(=O)OC2CC3CCC(C2)N3)ccc1O (stereo not drawn)
The LC retention time of the first is 1.5-fold higher: 5.04 min for the first, 3.27 min for the second.

First: O=C1c2c(O)cc(O)cc2OC(c2ccc(O)cc2)C1O (stereo not drawn)
Second: COc1cc(CCN)ccc1O
The LC retention time of the first is 2.3-fold higher: 4.8 min for the first, 2.06 min for the second.
